From paper PMC6917698, “One-Pot Radiosynthesis and Biological Evaluation of a Caspase-3 Selective 5-[^123,125I]iodo-1,2,3-triazole derived Isatin SPECT Tracer” (Scientific Reports, 2019)

Experiments:
[1] = Log D measurement (n-octanol/PBS, gamma counting); format: physicochemical; settings: measured with 125I-labelled compound
[2] = tested on: SW1222 tumour-bearing mice; test: Ex vivo biodistribution in SW1222 tumour-bearing mice; settings: for Uptake in tumour: SW1222 xenograft, 60 min after i.v. injection
[3] = molecular target: T1, Recombinant human caspase-3 (Homo sapiens, UniProt P42574); test: Caspase enzyme inhibition assay (fluorogenic Ac-DEVD-AMC), caspase-3
T1 sequence (P42574 29-175 limits assumed): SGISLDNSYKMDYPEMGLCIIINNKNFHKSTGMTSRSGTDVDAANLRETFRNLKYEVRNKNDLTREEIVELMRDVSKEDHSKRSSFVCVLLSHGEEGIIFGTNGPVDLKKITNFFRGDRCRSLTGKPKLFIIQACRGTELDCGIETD
T1 sequence (P42574 176-277 limits assumed): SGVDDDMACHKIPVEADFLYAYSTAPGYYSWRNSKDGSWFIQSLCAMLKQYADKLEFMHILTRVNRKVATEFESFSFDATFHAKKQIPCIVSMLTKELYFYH

[4] = molecular target: Recombinant human caspase-8 (Homo sapiens, UniProt Q14790); test: Caspase enzyme inhibition assay (fluorogenic Ac-IETD-AMC), caspase-8
[5] = Plasma metabolite analysis by HPLC; format: in vivo, mice; settings: 15 min post-injection, i.v.
Excerpt: However, the overall uptake in the tumour was too low to allow in vivo imaging of tumour apoptosis with SPECT. […] It is unclear if this reflects drug induced apoptosis, or if the observed changes were due to swelling or increased local blood flow. […] A single polar radioactive metabolite was detected consistent with deiodination in vivo to give [^125I]iodide. However, it should be noted that a similar polar metabolite has been observed for the non-iodinated analog [^18F]ICM-11, and the low uptake in the thyroid (2.4 ± 1%ID/g at 60 min post-injection) and high liver uptake point to another metabolic route. In any case, the rapid metabolism makes FITI poorly suited as a tracer for in vivo imaging of apoptosis.
After an incubation period at 37 °C
linear correlation software (OriginPro 2015).
3.2. Plasma metabolite analysis
The supernatant was decanted and mixed with
3.3. Biodistribution studies in mice
week prior to initiation of studies.
College London Animal Ethics Committee.4
were rapidly excised and weighed.

[6] = control animals, 60 min after i.v. tail vein injection

Recombinant human caspase-8, sequence (Q14790 217-374 limits assumed): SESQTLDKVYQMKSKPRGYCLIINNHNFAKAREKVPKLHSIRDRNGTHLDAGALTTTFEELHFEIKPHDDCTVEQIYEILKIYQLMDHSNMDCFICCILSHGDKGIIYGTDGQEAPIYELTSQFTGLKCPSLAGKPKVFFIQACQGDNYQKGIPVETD
Recombinant human caspase-8, sequence (Q14790 385-479 limits assumed): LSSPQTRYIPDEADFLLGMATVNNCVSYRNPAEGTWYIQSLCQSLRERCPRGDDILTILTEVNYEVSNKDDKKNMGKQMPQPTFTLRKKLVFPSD

Row | Intact parent tracer in mouse plasma [5] | Uptake in thyroid ([2]; 60 min post-injection) | Uptake in liver [2, 6] | Uptake in small intestine [2, 6] | Uptake in stomach [2, 6] | Uptake in tumour ([2]; control animals) | Uptake in tumour ([2]; etoposide-treated mice (50 mg/kg, 24 hrs, i.p.), p < 0.001 vs control) | SMILES | logD [1] | Increase in tumour uptake after etoposide-induced cell death ([2]; SW1222 xenograft model, etoposide vs control) | Ki [3] | IC50 [4]
1 |  |  |  |  |  |  |  | O=C1C(=O)N(Cc2nnn(CCF)c2I)c2ccc(S(=O)(=O)N3CCC[C@H]3COc3ccc(F)cc3F)cc21 [FITI, (S)-5-((2-((2,4-difluorophenoxy)methyl)pyrrolidin-1-yl)sulfonyl)-1-((1-(2-Fluoroethyl)-5-(Iodo)-1H-1,2,3-Triazol-4-yl)methyl)Indoline-2,3-dione] | 1.6 ± 0.1 | 2 fold | 0.0061 ± 0.0009 µM | > 50 µM
2 | less than 50% | 2.4 ± 1 %ID/g | 17 ± 6 %ID/g | 48 ± 13 %ID/g | 28 ± 25 %ID/g | 0.7 ± 0.4 %ID/g | 1.5 ± 0.2 %ID/g | O=C1C(=O)N(Cc2nnn(CCF)c2[125I])c2ccc(S(=O)(=O)N3CCCC3COc3ccc(F)cc3F)cc21 (stereo not shown) [[^125I]FITI] |  |  |  | 
3 |  |  |  |  |  |  |  | O=C1C(=O)N(Cc2nnn(CCF)c2I)c2ccccc21 [compound 4] | 1.14 ± 0.06 |  | > 50 µM | 
